Like-named read-outs stand apart in the source and are kept apart here.
Legend:
Myzus persicae = Myzus persicae test (Example A): spray treatment of infested cabbage leaves; type: in vivo
From the text: (§1) Solvent: 78 parts by weight of acetone

Phaedon cochleariae = Phaedon cochleariae larvae test (Example B): sprayed cabbage leaves populated with mustard beetle larvae; conditions: for pest or weed control at 100 g/ha / pest or weed control at 0.8 g/ha / pest or weed control at 20 g/ha / pest or weed control at 0.16 g/ha / pest or weed control at 4 g/ha: Phaedon cochleariae, in Brassica oleracea, 144 h
Spodoptera frugiperda = Spodoptera frugiperda larvae test (Example C): sprayed cabbage leaves populated with army worm larvae; type: in vivo; conditions: for Destruction in % after 6 d: Table C second series
From the text: as §1

Tetranychus urticae = Tetranychus urticae test (OP-resistant/spray treatment) (Example D): infested bean leaf discs; type: in vivo
Description: as §1
Bean leaf discs (Phaseolus vulgaris) which are infested with all stages of the red spider mite (Tetranychus urticae) are sprayed with an active substance preparation of the desired concentration.
After the desired period of time, the effect is determined in %.

[1] = Myzus persicae, 144 h, single active substance, 0.8 g/ha, after 6 d, read-out: Destruction in % after 6 d
[2] = read-out: Destruction in % after 6 d
[3] = Myzus persicae, 24 h, read-out: Destruction in % after 1 d
[4] = read-out: Destruction in % after 6 d, 100 g/ha, after 6 d, Table B fourth series
[5] = 20 g/ha, after 6 d, Table B second series
[6] = Myzus persicae, 144 h, read-out: Destruction in % after 6 d
[7] = read-out: Destruction in % after 6 d, 0.8 g/ha, after 6 d, Table B second series
[8] = read-out: Destruction in % after 6 d, 100 g/ha, after 6 d, Table B second series (r19-r78)
[9] = read-out: Destruction in % after 6 d, 4 g/ha, after 6 d, Table B second series
[10] = single active substance, 0.16 g/ha, after 1 d

## N#Cc1ccc(CC(=NNC(=O)Nc2ccc(OC(F)(F)F)cc2)c2cccc(C(F)(F)F)c2)cc1 (mixture of isomers) [Metaflumizone, 2-[2-(4-cyanophenyl)-1-[3-(trifluoromethyl)-phenyl]ethylidene]-N-[4-(trifluoromethoxy)phenyl]hydrazinecarboxamide]
Myzus persicae; [1]
  pest or weed control at 0.8 g/ha: 0%
Phaedon cochleariae; [2]
  pest or weed control at 100 g/ha: 0%
Spodoptera frugiperda; 20 g/ha
  Destruction in % after 6 d: 0%
Spodoptera frugiperda; 100 g/ha
  Destruction in % after 6 d: 83%

## Cc1ccc(/N=C/N(C)/C=N/c2ccc(C)cc2C)c(C)c1 [Amitraz, amitraz]
Myzus persicae; [3]
  pest or weed control at 4 g/ha: 0%
Phaedon cochleariae; [4]
  pest or weed control at 100 g/ha: 0%

## CCOCn1c(-c2ccc(Cl)cc2)c(C#N)c(Br)c1C(F)(F)F [Chlorfenapyr, chlorfenapyr]
Myzus persicae; [3]
  pest or weed control at 4 g/ha: 0%
Phaedon cochleariae; 100 g/ha, Table B third series
  Destruction in % after 2 d: 67%
Spodoptera frugiperda; 20 g/ha, Table C third series
  Destruction in % after 2 d: 33%

## O=C1C=C(N(CCF)Cc2ccc(Cl)nc2)CO1 [Compound (I-4), 4-{[(6-chloropyrid-3-yl)methyl](2-fluoroethyl)amino}furan-2(5H)-one]
Tetranychus urticae; 0.8 g/ha
  Destruction in % after 2 d: 0%
Tetranychus urticae; 4 g/ha
  Destruction in % after 2 d: 0%
  Destruction in % after 6 d: 0%
Tetranychus urticae; 20 g/ha
  Destruction in % after 2 d: 0%
Myzus persicae; Myzus persicae, 24 h, single active substance, 0.8 g/ha, after 1 d, read-out: Destruction in % after 1 d
  pest or weed control at 0.8 g/ha: 0%
Myzus persicae; Myzus persicae, 24 h, single active substance, 4 g/ha, after 1 d, read-out: Destruction in % after 1 d
  pest or weed control at 4 g/ha: 30%
Myzus persicae; [1]
  pest or weed control at 0.8 g/ha: 0%
Myzus persicae; Myzus persicae, 144 h, single active substance, 4 g/ha, after 6 d, read-out: Destruction in % after 6 d
  pest or weed control at 4 g/ha: 60%
Phaedon cochleariae; [5]
  Destruction in % after 6 d: 0%
Phaedon cochleariae; 100 g/ha, Table B third series
  Destruction in % after 2 d: 33%
Phaedon cochleariae; [2]
  pest or weed control at 0.8 g/ha: 0%
  pest or weed control at 20 g/ha: 0%
  pest or weed control at 100 g/ha: 33%
Spodoptera frugiperda; 0.16 g/ha
  Destruction in % after 6 d: 0%
Spodoptera frugiperda; 0.8 g/ha
  Destruction in % after 6 d: 0%
Spodoptera frugiperda; 4 g/ha, Table C third series
  Destruction in % after 2 d: 0%
Spodoptera frugiperda; 20 g/ha, Table C third series
  Destruction in % after 2 d: 0%
Spodoptera frugiperda; 100 g/ha
  Destruction in % after 6 d: 0%

## O=C1C=C(N(Cc2ccc(Cl)nc2)CC(F)F)CO1 [Compound (I-5), 4-{[(6-chloropyrid-3-yl)methyl](2,2-difluoroethyl)amino}furan-2(5H)-one]
Tetranychus urticae; 0.16 g/ha
  Destruction in % after 2 d: 0%
Tetranychus urticae; 4 g/ha
  Destruction in % after 2 d: 0%
  Destruction in % after 6 d: 0%
Myzus persicae; [3]
  pest or weed control at 0.8 g/ha: 10%
  pest or weed control at 4 g/ha: 70%
Myzus persicae; [6]
  pest or weed control at 0.8 g/ha: 10%
Phaedon cochleariae; 0.8 g/ha, Table B first series
  Destruction in % after 2 d: 0%
Phaedon cochleariae; 20 g/ha, after 6 d, Table B fourth series
  Destruction in % after 6 d: 0%
Phaedon cochleariae; 100 g/ha, Table B third series
  Destruction in % after 2 d: 50%
Phaedon cochleariae; read-out: Destruction in % after 6 d, 0.16 g/ha, after 6 d, Table B second series
  pest or weed control at 0.16 g/ha: 0%
Phaedon cochleariae; [7]
  pest or weed control at 0.8 g/ha: 0%
Phaedon cochleariae; [4]
  pest or weed control at 100 g/ha: 33%
Phaedon cochleariae; [8]
  pest or weed control at 100 g/ha: 0%
Spodoptera frugiperda; 0.16 g/ha
  Destruction in % after 6 d: 0%
Spodoptera frugiperda; 0.8 g/ha
  Destruction in % after 6 d: 0%
Spodoptera frugiperda; 4 g/ha, Table C third series
  Destruction in % after 2 d: 0%
Spodoptera frugiperda; 20 g/ha, Table C third series
  Destruction in % after 2 d: 0%
Spodoptera frugiperda; 20 g/ha
  Destruction in % after 6 d: 0%

## CN(Cc1cnc(Cl)c(F)c1)C1=CC(=O)OC1 [Compound (I-6), 4-{[(6-chloro-5-fluoropyrid-3-yl)methyl](methyl)amino}furan-2(5H)-one]
Tetranychus urticae; 0.16 g/ha
  Destruction in % after 2 d: 0%
Tetranychus urticae; 4 g/ha
  Destruction in % after 6 d: 0%
Tetranychus urticae; 20 g/ha
  Destruction in % after 2 d: 0%
Tetranychus urticae; 100 g/ha
  Destruction in % after 6 d: 50%
Myzus persicae; Myzus persicae, 24 h, single active substance, 0.16 g/ha, after 1 d, read-out: Destruction in % after 1 d
  pest or weed control at 0.16 g/ha: 0%
Myzus persicae; Myzus persicae, 144 h, single active substance, 0.16 g/ha, after 6 d, read-out: Destruction in % after 6 d
  pest or weed control at 0.16 g/ha: 0%
Myzus persicae; [1]
  pest or weed control at 0.8 g/ha: 70%
Phaedon cochleariae; 0.8 g/ha, Table B first series
  Destruction in % after 2 d: 0%
Phaedon cochleariae; [5]
  Destruction in % after 6 d: 0%
Phaedon cochleariae; 100 g/ha, Table B third series
  Destruction in % after 2 d: 33%
Phaedon cochleariae; [2]
  pest or weed control at 0.16 g/ha: 0%
  pest or weed control at 0.8 g/ha: 0%
  pest or weed control at 4 g/ha: 0%
  pest or weed control at 20 g/ha: 0%
Spodoptera frugiperda; 0.8 g/ha
  Destruction in % after 6 d: 0%
Spodoptera frugiperda; 4 g/ha, Table C third series
  Destruction in % after 2 d: 0%
Spodoptera frugiperda; 20 g/ha, Table C first series
  Destruction in % after 2 d: 0%
Spodoptera frugiperda; 20 g/ha, Table C third series
  Destruction in % after 2 d: 0%
Spodoptera frugiperda; 20 g/ha
  Destruction in % after 6 d: 0%

## Cc1nn(C)c(/C(OC(=O)C(C)(C)C)=C(\C#N)c2ccc(C(C)(C)C)cc2)c1C [Cyenopyrafen, (1E)-2-cyano-2-[4-(1,1-dimethylethyl)phenyl]-1-(1,3,4-trimethyl-1H-pyrazol-5-yl)ethenyl 2,2-dimethylpropanoate]
Tetranychus urticae; 0.16 g/ha
  Destruction in % after 2 d: 0%
Tetranychus urticae; 0.8 g/ha
  Destruction in % after 2 d: 50%
Myzus persicae; [3]
  pest or weed control at 4 g/ha: 0%
Phaedon cochleariae; [4]
  pest or weed control at 100 g/ha: 0%

## COCCOC(=O)C(C#N)(C(=O)c1ccccc1C(F)(F)F)c1ccc(C(C)(C)C)cc1 (stereo not drawn) [Cyflumetofen, 2-methoxyethyl alpha-cyano-alpha-[4-(1,1,dimethylethyl)phenyl]-beta-oxo-2-(trifluoromethyl)benzenepropanoate]
Tetranychus urticae; 4 g/ha
  Destruction in % after 6 d: 70%
Myzus persicae; [3]
  pest or weed control at 4 g/ha: 0%
Phaedon cochleariae; [4]
  pest or weed control at 100 g/ha: 0%

## Nc1nc(N)nc(NC2CC2)n1 [Cyromazine, cyromazine]
Myzus persicae; [3]
  pest or weed control at 4 g/ha: 0%
Phaedon cochleariae; read-out: Destruction in % after 6 d, 20 g/ha, after 6 d, Table B fourth series (r118-r181)
  pest or weed control at 20 g/ha: 0%
Phaedon cochleariae; [4]
  pest or weed control at 100 g/ha: 0%

## CC(C)c1cc(Oc2ccccc2)cc(C(C)C)c1NC(=S)NC(C)(C)C [Diafenthiuron, diafenthiuron]
Tetranychus urticae; 100 g/ha
  Destruction in % after 2 d: 0%
  Destruction in % after 6 d: 0%
Myzus persicae; [3]
  pest or weed control at 4 g/ha: 0%

## CC[S+]([O-])c1c(C#N)nn(-c2c(Cl)cc(C(F)(F)F)cc2Cl)c1N (stereo not shown) [Ethiprole, ethiprole]
Myzus persicae; [3]
  pest or weed control at 4 g/ha: 0%
Myzus persicae; [6]
  pest or weed control at 4 g/ha: 0%
Phaedon cochleariae; [7]
  pest or weed control at 0.8 g/ha: 33%
Phaedon cochleariae; [9]
  pest or weed control at 4 g/ha: 67%

## Cc1nn(C)c(Oc2ccccc2)c1C=NOCc1ccc(C(=O)OC(C)(C)C)cc1 [Fenpyroximate, fenpyroximate]
Tetranychus urticae; 4 g/ha
  Destruction in % after 6 d: 0%
Myzus persicae; [3]
  pest or weed control at 4 g/ha: 0%

## N#Cc1nn(-c2c(Cl)cc(C(F)(F)F)cc2Cl)c(N)c1[S+]([O-])C(F)(F)F (stereo not shown) [Fipronil, fipronil]
Myzus persicae; [3]
  pest or weed control at 20 g/ha: 30%
Myzus persicae; [6]
  pest or weed control at 0.8 g/ha: 0%
Spodoptera frugiperda; 0.8 g/ha
  Destruction in % after 6 d: 17%

## N#CCNC(=O)c1cnccc1C(F)(F)F [Flonicamid, flonicamid]
Myzus persicae; [3]
  pest or weed control at 0.8 g/ha: 0%
Phaedon cochleariae; [8]
  pest or weed control at 100 g/ha: 0%

## CSC(=O)O/C(=C(/C#N)c1ccc(Cl)cc1)c1ccccc1C(F)(F)F [IKA 2002, O-{(E)-2-(4-chlorophenyl)-2-cyano-1-[2-(trifluoromethyl)phenyl]ethenyl}S-methyl thiocarbonate]
Phaedon cochleariae; [2]
  pest or weed control at 20 g/ha: 0%
  pest or weed control at 100 g/ha: 0%

## COC(=O)N(C(=O)N1COC2(C(=O)OC)Cc3cc(Cl)ccc3C2=N1)c1ccc(OC(F)(F)F)cc1 (stereo not shown) [Indoxacarb, indoxacarb]
Myzus persicae; [3]
  pest or weed control at 20 g/ha: 0%
Phaedon cochleariae; [7]
  pest or weed control at 0.8 g/ha: 0%
Phaedon cochleariae; [9]
  pest or weed control at 4 g/ha: 33%
Spodoptera frugiperda; 0.8 g/ha
  Destruction in % after 6 d: 33%
Spodoptera frugiperda; 4 g/ha
  Destruction in % after 6 d: 83%

## CC1=NNC(=O)N(/N=C/c2cccnc2)C1 [Pymetrozine, pymetrozine]
Myzus persicae; [3]
  pest or weed control at 0.16 g/ha: 0%
Myzus persicae; [6]
  pest or weed control at 0.8 g/ha: 50%
Phaedon cochleariae; [4]
  pest or weed control at 100 g/ha: 0%

## CNC(=O)c1cc(Cl)cc(C)c1NC(=O)c1cc(Br)nn1-c1ncccc1Cl [Rynaxapyr, 3-bromo-N-{4-chloro-2-methyl-6-[(methylamino)carbonyl]phenyl}-1-(3-chloropyridin-2-yl)-1H-pyrazole-5-carboxamide]
Myzus persicae; [3]
  pest or weed control at 0.8 g/ha: 0%
Myzus persicae; [6]
  pest or weed control at 0.032 g/ha: 0%
Phaedon cochleariae; [9]
  pest or weed control at 4 g/ha: 50%
Spodoptera frugiperda; 0.16 g/ha
  Destruction in % after 6 d: 33%

## CC(C)(C)c1ccc(CSc2cnn(C(C)(C)C)c(=O)c2Cl)cc1 [pyridaben]
Tetranychus urticae; 20 g/ha
  Destruction in % after 2 d: 50%
Phaedon cochleariae; [4]
  pest or weed control at 100 g/ha: 0%

## CCc1nn(C)c(C(=O)NCc2ccc(C(C)(C)C)cc2)c1Cl [tebufenpyrad]
Tetranychus urticae; 4 g/ha
  Destruction in % after 2 d: 10%
Phaedon cochleariae; 100 g/ha, Table B third series
  Destruction in % after 2 d: 50%

## abamectin
Tetranychus urticae; 0.0064 g/ha
  Destruction in % after 2 d: 50%
Myzus persicae; [10]
  Destruction in % after 1 d: 0%
Phaedon cochleariae; 4 g/ha, Table B third series
  Destruction in % after 2 d: 67%

## emamectin-benzoate
Myzus persicae; [10]
  Destruction in % after 1 d: 0%
Phaedon cochleariae; 0.032 g/ha, Table B first series
  Destruction in % after 2 d: 0%
Spodoptera frugiperda; 0.8 g/ha, Table C first series
  Destruction in % after 2 d: 50%

## milbemectin
Tetranychus urticae; 0.16 g/ha
  Destruction in % after 6 d: 0%
Myzus persicae; [10]
  Destruction in % after 1 d: 0%

## spinosad
Tetranychus urticae; 4 g/ha
  Destruction in % after 2 d: 20%
Myzus persicae; single active substance, 0.8 g/ha, after 6 d
  Destruction in % after 6 d: 0%
Phaedon cochleariae; 0.8 g/ha, after 6 d, Table B fourth series
  Destruction in % after 6 d: 50%
Spodoptera frugiperda; 0.8 g/ha, Table C third series
  Destruction in % after 2 d: 0%
